Data: US10752609B2, “GSK-3 inhibitors” (priority 2016, dated 2020)
Like-named read-outs stand apart in the source and are kept apart here.

Tests used:
GSK3α = GSK3α (Homo sapiens, UniProt P49840); experiment: GSK3α kinase assay (Caliper LabChip3000 mobility shift, fluoresceinated peptide substrate)
pTau = pTau assay (no method described); assay type: cell-based
GSK3β = GSK3β (Homo sapiens, UniProt P49841); experiment: GSK3β kinase assay (Caliper LabChip3000 mobility shift, fluoresceinated peptide substrate); assay type: biochemical
[1] = 250 pM enzyme, 20 uM ATP, 1.5 uM peptide, 20 hours room temperature, first value of cell GSK3β/GSK3α, read-out: GSK3β (nM), IC50

Chain of GSK3β (P49841 whole entry, species assumed): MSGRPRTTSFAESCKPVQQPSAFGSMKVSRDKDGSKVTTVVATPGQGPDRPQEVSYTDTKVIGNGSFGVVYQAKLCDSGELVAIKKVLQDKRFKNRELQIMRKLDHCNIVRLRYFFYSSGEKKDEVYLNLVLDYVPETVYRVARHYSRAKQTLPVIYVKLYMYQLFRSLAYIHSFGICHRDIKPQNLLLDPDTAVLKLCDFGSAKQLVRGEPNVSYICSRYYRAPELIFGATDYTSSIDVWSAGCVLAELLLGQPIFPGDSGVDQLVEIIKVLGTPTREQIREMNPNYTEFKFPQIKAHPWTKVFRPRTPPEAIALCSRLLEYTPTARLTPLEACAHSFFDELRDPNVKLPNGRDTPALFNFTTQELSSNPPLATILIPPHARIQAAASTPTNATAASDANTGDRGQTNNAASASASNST
Chain of GSK3α (P49840 whole entry, species assumed): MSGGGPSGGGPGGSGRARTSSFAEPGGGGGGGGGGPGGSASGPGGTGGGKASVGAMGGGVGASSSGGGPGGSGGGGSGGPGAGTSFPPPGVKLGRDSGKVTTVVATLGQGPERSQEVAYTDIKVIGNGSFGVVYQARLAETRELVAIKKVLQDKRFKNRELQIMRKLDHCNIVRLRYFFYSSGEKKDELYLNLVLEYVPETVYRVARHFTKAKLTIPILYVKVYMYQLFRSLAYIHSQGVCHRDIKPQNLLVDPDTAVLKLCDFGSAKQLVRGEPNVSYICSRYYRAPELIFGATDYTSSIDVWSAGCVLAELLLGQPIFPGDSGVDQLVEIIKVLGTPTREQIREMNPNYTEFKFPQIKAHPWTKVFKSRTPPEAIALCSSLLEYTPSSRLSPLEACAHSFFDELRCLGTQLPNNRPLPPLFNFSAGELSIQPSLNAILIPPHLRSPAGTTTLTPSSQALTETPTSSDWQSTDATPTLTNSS

| Structure (SMILES) | IC50 (GSK3α) [nM] | IC50 (pTau) [nM] | IC50 (GSK3β; [1]) [nM] | IC50 (GSK3β) [nM] |
| --- | --- | --- | --- | --- |
| Cc1cc(C#N)ccc1Nc1nccc(C(=O)Nc2cnccc2-c2ccccc2)n1 [Example 21, 2-((4-Cyano-2-methylphenyl)amino)-N-(4-phenylpyridin-3-yl)pyrimidine-4-carboxamide] | 0.35 | 97 | 0.43 |  |
| O=C(Nc1cnccc1-c1ccccc1)c1ccnc(Nc2ccc(Cl)cc2Cl)n1 [Example 23, 2-((2,4-Dichlorophenyl)amino)-N-(4-phenylpyridin-3-yl)pyrimidine-4-carboxamide] | 4.8 | 1600 | 6.2 |  |
| N#Cc1ccc(Nc2nccc(C(=O)Nc3cnccc3-c3ccccc3)n2)c(Cl)c1 [Example 24, 2-((2-Chloro-4-cyanophenyl)amino)-N-(4-phenylpyridin-3-yl)pyrimidine-4-carboxamide] | 1.6 | 170 | 3.8 |  |
| O=C(Nc1cnccc1-c1ccccc1)c1ccnc(Nc2ccc(C(F)(F)F)cc2F)n1 [Example 25, 2-((2-Fluoro-4-(trifluoromethyl)phenyl)amino)-N-(4-phenylpyridin-3-yl)pyrimidine-4-carboxamide] | 2.2 | 4800 |  | 3.3 |
| O=C(Nc1cnccc1-c1ccccc1)c1ccnc(Nc2ccc(Cl)cc2F)n1 [Example 26, 2-((4-Chloro-2-fluorophenyl)amino)-N-(4-phenylpyridin-3-yl)pyrimidine-4-carboxamide] | 0.33 | 110 | 0.57 |  |
| N#Cc1ccc(Nc2nccc(C(=O)Nc3cnccc3-c3ccccc3)n2)cc1Cl [Example 27, 2-((3-Chloro-4-cyanophenyl)amino)-N-(4-phenylpyridin-3-yl)pyrimidine-4-carboxamide] | 0.16 | 20 |  | 0.24 |
| N#Cc1ccc(Nc2nccc(C(=O)Nc3cnccc3-c3ccccc3)n2)cc1C(F)(F)F [Example 28, 2-((4-Cyano-3-(trifluoromethyl)phenyl)amino)-N-(4-phenylpyridin-3-yl)pyrimidine-4-carboxamide] | 0.9 | 170 |  | 1.5 |
| O=C(Nc1cnccc1-c1ccccc1)c1ccnc(Nc2ccc(OC(F)F)cc2Cl)n1 [Example 29, 2-((2-Chloro-4-(difluoromethoxy)phenyl)amino)-N-(4-phenylpyridin-3-yl)pyrimidine-4-carboxamide] | 2.6 | 1400 | 4.6 |  |
| O=C(Nc1cnccc1-c1ccccc1)c1ccnc(Nc2c(F)cc(Cl)cc2F)n1 [Example 30, 2-((4-Chloro-2,6-difluorophenyl)amino)-N-(4-phenylpyridin-3-yl)pyrimidine-4-carboxamide] | 1.8 | 350 | 3.9 |  |
| O=C(Nc1cnccc1-c1ccccc1)c1ccnc(Nc2cc(Cl)c(Cl)cc2F)n1 [Example 31, 2-((4,5-Dichloro-2-fluorophenyl)amino)-N-(4-phenylpyridin-3-yl)pyrimidine-4-carboxamide] | 0.52 | 320 | 0.89 |  |
| O=C(Nc1cnccc1-c1ccccc1)c1ccnc(Nc2cc(F)c(Cl)cc2F)n1 [Example 32, 2-((4-Chloro-2,5-difluorophenyl)amino)-N-(4-phenylpyridin-3-yl)pyrimidine-4-carboxamide] | 0.56 | 100 | 0.48 |  |
| O=C(Nc1cnccc1-c1ccccc1)c1ccnc(Nc2cc(OC(F)F)c(Cl)cc2F)n1 [Example 33, 2-((4-Chloro-5-(difluoromethoxy)-2-fluorophenyl)amino)-N-(4-phenylpyridin-3-yl)pyrimidine-4-carboxamide] | 2.1 | 700 | 2.3 |  |
| O=C(Nc1cnccc1-c1ccccc1)c1ccnc(Nc2cccnc2)n1 [Example 34, N-(4-Phenylpyridin-3-yl)-2-(pyridin-3-ylamino)pyrimidine-4-carboxamide] | 0.69 | 46 | 1.2 |  |
| O=C(Nc1cnccc1-c1ccccc1)c1ccnc(Nc2ccncc2)n1 [Example 35, N-(4-Phenylpyridin-3-yl)-2-(pyridin-4-ylamino)pyrimidine-4-carboxamide] | 0.63 | 30 | 1.1 |  |
| Cc1cc(Nc2nccc(C(=O)Nc3cnccc3-c3ccccc3)n2)ccn1 [Example 36, 2-((2-Methylpyridin-4-yl)amino)-N-(4-phenylpyridin-3-yl)pyrimidine-4-carboxamide] | 0.55 | 36 |  | 0.84 |
| COc1cc(Nc2nccc(C(=O)Nc3cnccc3-c3ccccc3)n2)ccn1 [Example 37, 2-((2-Methoxypyridin-4-yl)amino)-N-(4-phenylpyridin-3-yl)pyrimidine-4-carboxamide] | 0.51 | 33 | 0.54 |  |
| O=C(Nc1cnccc1-c1ccccc1)c1ccnc(Nc2ccc(OC(F)F)nc2)n1 [Example 38, 2-((6-(Difluoromethoxy)pyridin-3-yl)amino)-N-(4-phenylpyridin-3-yl)pyrimidine-4-carboxamide] | 1.1 | 130 | 3.1 |  |

| Structure (SMILES) | IC50 (GSK3α) [nM] | IC50 (pTau) [nM] | IC50 (GSK3β; [1]) [nM] | IC50 (GSK3β) [nM] |
| --- | --- | --- | --- | --- |
| O=C(Nc1cnccc1-c1ccccc1)c1ccnc(Nc2ccc(C(F)(F)F)nc2)n1 [Example 39, N-(4-Phenylpyridin-3-yl)-2-((6-(trifluoromethyl)pyridin-3-yl)amino)pyrimidine-4-carboxamide] | 1.5 | 470 | 3.4 |  |
| Cc1nc(OC(F)F)ccc1Nc1nccc(C(=O)Nc2cnccc2-c2ccccc2)n1 [Example 40, 2-((6-(Difluoromethoxy)-2-methylpyridin-3-yl)amino)-N-(4-phenylpyridin-3-yl)pyrimidine-4-carboxamide] | 21 | 5200 | 22 |  |
| Cc1cc(Nc2nccc(C(=O)Nc3cnccc3-c3ccccc3)n2)c(C)nc1OC(F)F [Example 41, 2-((6-(Difluoromethoxy)-2,5-dimethylpyridin-3-yl)amino)-I-(4-phenylpyridin-3-yl)pyrimidine-4-carboxamide] | 1.9 | 290 | 1.6 |  |
| CC(C)OCCCNc1nccc(C(=O)Nc2cnccc2-c2ccccc2)n1 [Example 42, 2-((3-Isopropoxypropyl)amino)-N-(4-phenylpyridin-3-yl)pyrimidine-4-carboxamide] | 0.59 | 93 | 0.88 |  |
| O=C(Nc1cnccc1-c1ccc(F)cc1)c1ccnc(Nc2ccccc2)n1 [Example 43, N-(4-(4-Fluorophenyl)pyridin-3-yl)-2-(phenylamino)pyrimidine-4-carboxamide] | 0.19 | 34 | 0.25 |  |
| O=C(Nc1cnccc1-c1ccc(F)cc1)c1ccnc(Nc2ccc(F)cc2)n1 [Example 44, 2-((4-Fluorophenyl)amino)-N-(4-(4-fluorophenyl)pyridin-3-yl)pyrimidine-4-carboxamide] | 0.46 | 34 | 0.26 |  |
| N#Cc1ccc(Nc2nccc(C(=O)Nc3cnccc3-c3ccc(F)cc3)n2)cc1 [Example 45, 2-((4-Cyanophenyl)amino)-N-(4-(4-fluorophenyl)pyridin-3-yl)pyrimidine-4-carboxamide] | 0.29 | 10 | 0.35 |  |
| O=C(Nc1cnccc1-c1ccc(F)cc1)c1ccnc(Nc2ccc(Cl)cc2)n1 [Example 46, 2-((4-Chlorophenyl)amino)-N-(4-(4-fluorophenyl)pyridin-3-yl)pyrimidine-4-carboxamide] | 0.44 | 77 | 0.5 |  |
| O=C(Nc1cnccc1-c1ccc(F)cc1)c1ccnc(Nc2ccc(C(F)(F)F)cc2)n1 [Example 47, N-(4-(4-Fluorophenyl)pyridin-3-yl)-2-((4-(trifluoromethyl)phenyl)amino)pyrimidine-4-carboxamide] | 0.7 | 100 | 2.1 |  |
| O=C(Nc1cnccc1-c1ccc(F)cc1)c1ccnc(Nc2ccc(OC(F)(F)F)cc2)n1 [Example 48, N-(4-(4-Fluorophenyl)pyridin-3-yl)-2-((4-(trifluoromethoxy)phenyl)amino)pyrimidine-4-carboxamide] | 1.3 | 170 | 1.5 |  |
| O=C(Nc1cnccc1-c1ccc(F)cc1)c1ccnc(Nc2ccc(OC(F)F)cc2)n1 [Example 49, 2-((4-(Difluoromethoxy)phenyl)amino)-N-(4-(4-fluorophenyl)pyridin-3-yl)pyrimidine-4-carboxamide] | 0.29 | 74 | 0.48 |  |
| O=C(Nc1cnccc1-c1ccc(F)cc1)c1ccnc(Nc2ccc(OC(F)F)nc2)n1 [Example 50, 2-((6-(Difluoromethoxy)pyridin-3-yl)amino)-N-(4-(4-fluorophenyl)pyridin-3-yl)pyrimidine-4-carboxamide] | 1.5 | 180 | 4 |  |
| O=C(Nc1cnccc1OCC(F)(F)F)c1ccnc(Nc2ccccc2)n1 [Example 51, 2-(Phenylamino)-N-(4-(2,2,2-trifluoroethoxy)pyridin-3-yl)pyrimidine-4-carboxamide] | 0.16 | 13 | 0.25 |  |
| COc1ccc(Nc2nccc(C(=O)Nc3cnccc3OCC(F)(F)F)n2)cc1 [Example 52, 2-((4-Methoxyphenyl)amino)-N-(4-(2,2,2-trifluoroethoxy)pyridin-3-yl)pyrimidine-4-carboxamide] | 0.06 | 6 | 0.07 |  |
| CCOc1ccc(Nc2nccc(C(=O)Nc3cnccc3OCC(F)(F)F)n2)cc1 [Example 53, 2-((4-Ethoxyphenyl)amino)-N-(4-(2,2,2-trifluoroethoxy)pyridin-3-yl)pyrimidine-4-carboxamide] | 0.22 | 10 | 0.35 |  |
| Cc1ccc(Nc2nccc(C(=O)Nc3cnccc3OCC(F)(F)F)n2)cc1 [Example 54, 2-(p-Tolylamino)-N-(4-(2,2,2-trifluoroethoxy)pyridin-3-yl)pyrimidine-4-carboxamide] | 0.08 | 5.1 | 0.12 |  |
